PubChem BioAssay AID2305 (GlaxoSmithKline (GSK), 2010)
Where “and” joins values, the source holds several entries; their conditions need not be identical. Equal entries are not always repeated.

Tested on: P. falciparum 3D7 growth, pLDH absorbance
Assay: P. falciparum 3D7 growth inhibition, dose response, strain 3D7 (AID 2305)

Compound | IC50
CC(=O)Nc1cccc(C(=O)Nc2cccc(-c3cccc(-c4nc5ccccc5[nH]4)c3)c2)c1 | 590 nM
COc1ccc(-c2nc3cccnc3n2CC(=O)Nc2c(C)cc(C)cc2C)c(OC)c1 | 930 nM
CCc1nc2c(cnn2CC)c(NC2CCOCC2)c1CNC(=O)N1CCOCC1 | 890 nM
Fc1ccc2nc(-c3cccc(-c4cccc(CNCCc5ccncc5)c4)c3)[nH]c2c1 | 170 nM
c1ccc(-c2cccnn2)cc1 | 910 nM
CN(C)CCC1CCN(CCS(=O)(=O)c2cccc(Nc3ccc(-c4ccsc4)cn3)c2)CC1 | 940 nM
COC(=O)c1noc(C)c1I | 800 nM
Cc1ccccc1C1CCN(C2CCC(NC(=O)c3ccc(-c4ccccc4F)o3)CC2)CC1 (stereo not drawn) | 1050 nM
O=C(NC1CCCCC1)C1CCCN(C(=O)c2ccc(O)c(-c3ccc(Cl)c(Cl)c3)c2)C1 (stereo not drawn) | 900 nM
CN(C)c1ccc(CN2CCC(CNC(=O)c3cc(-c4ccccc4F)cs3)C2)cc1 (stereo not drawn) | 910 nM
CCCCOc1ccc(C(O)C(CN2CCCCC2)c2ccccc2)cc1 (stereo not drawn) | 890 nM
Oc1ccccc1CN1CCN(C(c2ccccc2)c2ccccc2)CC1 | 760 nM
CCCNCc1ccc(-c2ccc(CN(CCOC)C(=O)c3nn(-c4ccccc4)nc3C)cc2)nc1 | 730 nM
CCn1c(-c2nonc2N)nc2cnc(Oc3cccc(NC(=O)c4ccc(OCCCN5CCCCC5)cc4)c3)cc21 | 930 nM
Cc1ccc(NC(=O)c2ccc(CN3CCCN(CC4CCCCC4)CC3)cc2)cc1F | 290 nM
COc1cc2nc(N(C)C)nc(Nc3ccc(OCc4ccccc4)cc3)c2cc1OC | 70 nM
COc1cc(C2CCN(CCCCNC(=O)c3ccc(NC(=O)c4ccc(Cl)c(Cl)c4)cc3)CC2)ccc1OC(C)C | 320 nM
Clc1ccc(CNc2nc(NCCc3cnc[nH]3)nc(N3CCCC4CCCCC43)n2)cc1 (stereo not drawn) | 590 nM
O=C(COc1ccccc1)N(Cc1ccc(-c2ccc(CNC3Cc4ccccc4C3)cc2)cc1)C1CCNCC1 | 1020 nM
Cc1cccc(Oc2cccc3[nH]nc(N)c23)c1 | 1040 nM
CC(C)CCn1c(Sc2ccc([N+](=O)[O-])cc2C(F)(F)F)nnc1-c1ccccc1Cl | 920 nM
CC(C)(CNC(=O)[C@@H]1CCCCN1)c1nc(-c2ccc(Cl)c(O)c2)c(-c2ccncc2)[nH]1 | 840 nM
COc1cccc(CCNCCCCCCNCCc2ccc(Cl)cc2)c1 | 1010 nM
COC(=O)C1=C(C)NC2=C(C(=O)CC(c3ccc(OC)c(OC)c3)C2)C1c1cccc(O)c1 (stereo not drawn) | 730 nM
Fc1ccc2nc(-c3ccc(-c4ccc(CNCc5ccccc5)cc4)cc3)[nH]c2c1 | 280 nM

Compound | IC50
COc1ccccc1C1CC(c2ccccc2)=NN1C(=O)c1ccco1 (stereo not drawn) | 400 nM
CC(C)(C)C1CCC(CC2=C(C(=O)O)c3ccccc3C2=O)CC1 (stereo not drawn) | 1100 nM
O=C(CN1CCN(S(=O)(=O)C=Cc2ccccc2)CC1)Nc1cc(C(F)(F)F)ccc1Cl | 780 nM
Cc1c(CN2CCC(N3CCC(C(=O)NC4CC4)CC3)CC2)[nH]c2c(Cl)cccc12 | 1190 nM
CCC1(CC)N=C(N)N=C(N)C1c1ccc(Cl)c(Cl)c1 (stereo not drawn) | 380 nM
NC(=O)c1ccccc1Nc1nc(Nc2ccn[nH]2)ncc1Cl | 960 nM
CCc1ccc(CN2CCC(CNC(=O)c3cc(-c4cccc(C(F)(F)F)c4)cs3)C2)cc1 (stereo not drawn) | 750 nM
CCn1c(-c2nonc2N)nc2cnc(Oc3cccc(NC(=O)c4ccc(OCCN(C(C)C)C(C)C)cc4)c3)cc21 | 780 nM
N#Cc1ccc(N2CCN(Cc3ccc(-c4ccc(-c5nc6ccc(C(F)(F)F)cc6[nH]5)cc4)cc3)CC2)nc1 | 960 nM
CCCc1ccc(-c2csc(NC(=O)c3ccc([N+](=O)[O-])o3)n2)cc1 | 1210 nM
CCCN(CCCCCCNCCc1ccc(Cl)cc1)CCc1ccc(O)c(O)c1 | 940 nM
CC1(C)[C@H]2CC[C@@H](CNc3nc(NCCc4cnc[nH]4)nc(Nc4ccc(Oc5ccccc5)cc4)n3)[C@@H]1C2 | 670 nM
CCCOc1ccc(C(F)(F)F)cc1NC(=O)c1nc2nc(C)cc(C)n2n1 | 250 nM
O=C(COc1ccccc1Cc1ccccc1)Nc1cc(Cl)ccc1-n1cncn1 | 640 nM
COc1ccc(NC(=O)C2c3ccccc3C(=O)N(C3CCCC3)C2c2cccs2)cc1 (stereo not drawn) | 1710 nM
O=C(Cn1cnc2c(nnn2Cc2ccccc2F)c1=O)Nc1ccc2c(c1)OCCO2 | 950 nM
CCOCc1cnc(C)nc1NCC(=O)c1c(C)[nH]c2cc(C)ccc12 | 1210 nM
Cc1cc(-c2cccc(CNC3CCCC3)c2)ccc1S(=O)(=O)NCCN1CCCC1 | 1240 nM
O=C(Cc1cccc(OCCCN(Cc2cccc(C(F)(F)F)c2Cl)CC(c2ccccc2)c2ccccc2)c1)NCc1ccco1 | 940 nM
Cc1cnc2ccc(NS(=O)(=O)c3ccc4c(Cl)cccc4c3)cc2c1N1CCNCC1 | 750 nM
Cc1cccc2[nH]c(-c3ccc(-c4ccc(NC(=O)Nc5ccc(Cl)cc5)cc4)s3)nc12 | 150 nM
COc1ccc(CC(=O)Nc2ccc(-c3cccc(-c4nc5c(C)cccc5[nH]4)c3)cc2)cc1O | 450 nM
CCCCCCC(CC)c1cc(O)c2c(c1)OC(C)(C)c1ccncc1-2 (stereo not drawn) | 810 nM
O=c1cc(NCCCNC2CCOc3c(Cl)cc(Cl)cc32)[nH]c2ccccc12 (stereo not drawn) | 720 nM
Cc1sc2nc(CN3CCCC3)nc(-n3c(NCCO)nc4ccccc43)c2c1C | 1240 nM

Compound | IC50
Clc1ccc(CNCCCCCCNCc2ccc(Cl)cc2)cc1 | 850 nM
O=C(c1ccc(Br)o1)N1N=C(c2cccs2)CC1c1ccc(Br)cc1 (stereo not drawn) | 510 nM
COc1ccc2nccc([C@@H](O)CN3CCC(NCc4ccc5c(c4)NC(=O)C(C)(C)O5)CC3)c2c1 | 400 nM
COc1cccc(C(=O)Nc2sc3c(c2C(N)=O)CCCC3)c1OC | 930 nM
CNCc1ccc(CN(C)c2nc(N)c3cc(OC)c(OC)cc3n2)cc1 | 1030 nM
COc1cc(NC(=O)C(c2ccc(Cl)cc2)C(C)C)cc(OC)c1 (stereo not drawn) | 720 nM
CCN(CC)CCOc1cc2c(cc1Br)-c1cc(Br)c(OCCN(CC)CC)cc1C2=NO | 1090 nM
CN=C(N)c1ccc(NC(=O)c2ccc(C(=O)Nc3ccc(C(N)=NC)cc3)cc2)cc1 | 50 nM
c1ccc(CN2CCC(NCc3ccc(-c4ccc(CNCc5cccnc5)cn4)cc3)CC2)cc1 | 880 nM
CN(C)c1cccc(CCNCCc2c[nH]c3ccc(Cl)cc23)c1 | 440 nM
CC(C)C[C@H](NC(=O)c1cc2ccccc2s1)C(=O)N[C@H]1CCN(Cc2ccc(OCCN3CCNCC3)c3ccccc23)C1 | 1420 nM
CN1CCN(CCCN(Cc2cccc(-c3ccc(CNC4CCCC4)cc3)c2)C(=O)/C=C/c2ccccc2)CC1 | 750 nM
CC(=O)N1CCC(C(=O)Nc2ccc(-c3cccc(-c4nc5c(C)cccc5[nH]4)c3)cc2)CC1 | 310 nM
CC(C)Nc1cc(C(=O)N[C@@H](Cc2ccccc2)[C@H](O)CNC(C)(C)c2cccc(C(F)(F)F)c2)cc(N2CCCCS2(=O)=O)c1 | 80 nM
Cc1c(C(=O)N2CCc3cc4nccc(N5CCN6CCC[C@H]6C5)c4cc32)cnn1-c1ccc(C#N)cc1 | 990 nM
COc1ccc2nc(N)nc(C)c2c1 | 930 nM
O=C(/C=C/c1ccccc1O)NC1CCC(CN2CCC(c3c[nH]c4ccccc34)CC2)CC1 (stereo not drawn) | 760 nM and 460 nM
O=C(/C=C/c1ccc(Cl)c(Cl)c1)N1CCC(CCN2CCC(c3c[nH]c4ccncc34)CC2)CC1 | 1140 nM
COc1ccc(Nc2nccc(N3CCC(NC(=O)C(C)c4ccc(Cl)cc4)CC3)n2)cc1 (stereo not drawn) | 930 nM
CN(C)CCNCc1nc(-c2ccc3c(Nc4ccc(Cl)cc4F)ccnc3c2)cs1 | 810 nM
COc1cccc(C23N=C(Nc4nc5ccccc5[nH]4)NC2(c2cccc(OC)c2)NC(Nc2nc4ccccc4[nH]2)=N3)c1 (stereo not drawn) | 160 nM
O=S(=O)(Nc1ccc(CCN2CCC(N3CCCCC3)CC2)cc1)c1cccc2cccnc12 | 1060 nM
Nc1nc(N)c2c(Cl)c(N(Cc3ccccc3)Cc3ccccc3)ccc2n1 | 190 nM
O=C(/C=C/c1ccc(Cl)c(Cl)c1)N1CCC(CN2CCC(c3c[nH]c4ccncc34)CC2)CC1 | 730 nM
CC(C)c1nc(N2CCN(C(=S)NCc3ccccc3)CC2)c(C#N)c2c1COC(C)(C)C2 | 140 nM

Compound | IC50
CCOC(=O)c1ccc(Nc2cc(Nc3ccc(C(=O)OCC)cc3)nc(C)n2)cc1 | 910 nM
COc1ccc2nc(-c3ccccc3)cc(NN=Cc3ccc([N+](=O)[O-])cc3)c2c1 | 150 nM
COc1ccc2nccc([C@@H](O)CN3CCC(NCc4cc5ccccc5s4)CC3)c2c1 | 350 nM
CCCCN1CCCC[C@H]1[C@@H](O)c1ccnc2ccc(OCC)cc12 | 770 nM
CN(C)CCCOc1ccc(CN2CC[C@H](NC(=O)c3ccc(Cl)c(Cl)c3)C2)c2ccccc12 | 880 nM
c1cc(CNCC2CCCO2)cc(-c2cccc(-c3nc4ccccc4[nH]3)c2)c1 (stereo not drawn) | 860 nM
COc1cc(-c2cc3cc(Cl)c(Cl)cc3[nH]2)ccc1C(=O)NCCC1CCCN1C (stereo not drawn) | 970 nM
Oc1ccc2ccccc2c1C=NNc1nc(Nc2ccccc2)nc(N2CCOCC2)n1 | 890 nM
COc1ccccc1N1CCN(CCCCNC(=O)c2ccc(NC(=O)c3ccc(C(F)(F)F)cc3)cc2)CC1 | 300 nM
Cc1cccc2[nH]c(-c3ccc(-c4ccc(CN5CCCC(O)C5)cc4)s3)nc12 (stereo not drawn) | 830 nM
CNc1nc(NN=Cc2cc3c(cc2[N+](=O)[O-])OCO3)nc(Nc2cccc(C(F)(F)F)c2)n1 | 770 nM
COc1cccc(C(=O)NCc2cccs2)c1OCc1ccccc1 | 920 nM
CC(C)(C)c1ccc(C(=O)Nc2ccc(NC(=O)c3ccc([N+](=O)[O-])o3)cc2)cc1 | 840 nM
CC(C)[C@H](NC(=O)c1ccc(O)c(-c2ccc(Cl)c(Cl)c2)c1)C(=O)NCCN1CCCC1 | 930 nM
Oc1ccc(CCNc2nc(NCc3ccccc3-c3ccc(C(F)(F)F)cc3)nc(N3CCNCC3)n2)cc1 | 870 nM
COc1cc2nc(Cl)nc(Nc3ccncc3)c2cc1OC | 1210 nM
CC(C)CNCc1ccc(-c2ccc(CN(CCCN3CCN(C)CC3)C(=O)CCC3CCCC3)cc2)cc1 | 1060 nM
CSc1cccc(Nc2nc3ccc(S(=O)(=O)NCC(C)C)cc3n2C(C)C(C)C)c1 (stereo not drawn) | 820 nM
COc1ccc(CNC(=O)Nc2cc3cc(-c4ccc(CN(C)C)cc4)ccc3n3c(C)nnc23)cc1 | 850 nM
CCCNCc1ccc(-c2ccc(CN(CCOC)C(=O)c3ccco3)cc2)nc1 | 1000 nM
CC(C)N1CCC(N(Cc2ccc(-c3ccc(C(F)(F)F)cc3)cc2)C(=O)Cn2c(CCc3cccc(F)c3F)cc(=O)c3c2CCC3)CC1 | 620 nM
CN1CCC(NCCS(=O)(=O)c2cccc(Nc3ccc(-c4cccc(F)c4)cn3)c2)CC1 | 1360 nM
COc1ccc2nccc([C@@H](O)CN3CCC(NCc4ccc5c(c4)nnn5C(C)C)CC3)c2c1 | 640 nM
